Key:
acute toxicity in rats = type: in vivo; details: rat, in vivo, oral
rats = experiment: acute toxicity in rats; type: in vivo; details: 1000 mg/kg oral
[1] = test system: ischemia induced weight increase of the small intestine; experiment: inhibition of ischemia induced weight increase of a definite section in the small intestine of rats; type: in vivo; details: Rattus norvegicus, 25 mg/kg oral
Procedure: 2. […] The percentage of inhibition observed after administration of a 25 mg/kg oral dose of the compounds of the invention or of the reference compounds is shown in Table 5.

[2] = test system: rat brain homogenate (ferrous ion dependent lipid peroxidation); experiment: ferrous ion dependent lipid peroxidation inhibitory activity on rat brain homogenate (thiobarbituric acid reactive substances); type: biochemical; details: Fe2+ dependent lipid peroxidation, TBARS
Procedure: 1. The ferrous ion dependent lipid peroxidation inhibitory activity was measured on rat brain homogenate by using the method descibed by J. M. Braughler et al., [J. Biol. Chem. 262, 10438 (1987)] and J. A. Buege and S. D. […] The IC50 value is defined as the concentration of a test substance which reduces by 50% the amount of the thiobarbituric acid reactive substances (chiefly malondialdehyde) considered to be a characteristic parameter of lipid peroxidation.

acute brain injury = experiment: inhibition of acute brain injury of mice (improvement in the neurological state); type: in vivo; details: intravenous
Description: 1. […] 68, 456 (1988)]. The doses of the test compounds administered by the intravenous route and the percentage of improvement in the neurological state are summarized in Table 4.

[3] = test system: arachidonic acid (ferrous ion dependent peroxidation); experiment: inhibition of the ferrous ion dependent peroxidation of arachidonic acid; type: biochemical; details: Fe2+ dependent peroxidation of arachidonic acid
Procedure: 2. The inhibition of the ferrous ion dependent peroxidation of arachidonic acid was also measured by the method of J. M. Braughler et al. [J. Biol. Chem. 262, 10438 (1987)] and J. A. Buege and S. D. Aust [Methods in Enzymology 52, 302 (1978)]. The IC50 values (expressed in micromols) of some compounds of the invention, further those of the reference compounds determined in this test are shown in Table 2.

[4] = test system: NADPH dependent lipid peroxidation; experiment: inhibition of the NADPH dependent lipid peroxidation; type: biochemical
Procedure: 3. Inhibiton of the NADPH dependent lipid peroxidation was measured according to T. J. Player and A. A. Horton [J. Neurochem. 37, 422 (1981)] and Z. Duniec [Biochem. Pharmacol. 32, 2283 (1983)]. The IC50 values (expressed in micromols) of some compounds of the invention, further those of the reference compounds determined in this test are given in Table 3.

Nc1cc(N2CCN(C(=O)COc3ccc4ccccc4c3)CC2)nc(N)n1 [Example 34]
LD50 (acute toxicity in rats): > 1000 mg/kg | death of treated animals (rats): did not provoke death of any of the treated animals | inhibition in vivo at 25 mg/kg [1]: 69%

C=CCCCCCCCCC(=O)N1CCN(c2cc(N3CCCC3)nc(N3CCCC3)n2)CC1 [Example 1, 1-(10-Undecenoyl)-4-[2,6-di(1-pyrrolidinyl)-4-pyrimidinyl]piperazine]
IC50 [2]: 30 µM | LD50 (acute toxicity in rats): > 1000 mg/kg | death of treated animals (rats): did not provoke death of any of the treated animals | inhibition in vivo at 25 mg/kg [1]: 55% | Improvement (in the neurological state) (acute brain injury; 10 mg/kg): 68%

Nc1nc(N)c2nc(-c3ccc(OCC(O)CN4CCNCC4)cc3)c(N)nc2n1 (stereo not shown) [Example 50, 6-[4-[2-Hydroxy-3-(1-piperazinyl)propoxy]phenyl]-2,4,7-triamino-pteridine]
IC50 [3]: 15 µM | LD50 (acute toxicity in rats): > 1000 mg/kg | death of treated animals (rats): did not provoke death of any of the treated animals | inhibition in vivo at 25 mg/kg [1]: 78% | Improvement (in the neurological state) (acute brain injury; 20 mg/kg): 93%

OC(COc1ccc2ccccc2c1)CN1CCCN(c2cc(N3CCCC3)nc(N3CCCC3)n2)CC1 (stereo not shown) [Example 27]
IC50 [2]: 8 µM | IC50 [4]: 22 µM | LD50 (acute toxicity in rats): > 1000 mg/kg | death of treated animals (rats): did not provoke death of any of the treated animals | inhibition in vivo at 25 mg/kg [1]: 60% | Improvement (in the neurological state) (acute brain injury; 20 mg/kg): 82%

Nc1cc(N2CCN(CC(O)COc3ccc4c(c3)CCCC4=O)CC2)nc(N)n1 (stereo not shown) [Example 28]
LD50 (acute toxicity in rats): > 1000 mg/kg | death of treated animals (rats): did not provoke death of any of the treated animals | inhibition in vivo at 25 mg/kg [1]: 64%

c1ccc(C(c2ccccc2)(c2ccccc2)N2CCN(c3cc(N4CCCC4)nc(N4CCCC4)n3)CC2)cc1 [Example 10]
LD50 (acute toxicity in rats): > 1000 mg/kg | death of treated animals (rats): did not provoke death of any of the treated animals | inhibition in vivo at 25 mg/kg [1]: 56%
